Data set [1] deals with T1, BCRP (ABCG2) (Homo sapiens, UniProt Q9UNQ0).
T1 sequence (Q9UNQ0 whole entry): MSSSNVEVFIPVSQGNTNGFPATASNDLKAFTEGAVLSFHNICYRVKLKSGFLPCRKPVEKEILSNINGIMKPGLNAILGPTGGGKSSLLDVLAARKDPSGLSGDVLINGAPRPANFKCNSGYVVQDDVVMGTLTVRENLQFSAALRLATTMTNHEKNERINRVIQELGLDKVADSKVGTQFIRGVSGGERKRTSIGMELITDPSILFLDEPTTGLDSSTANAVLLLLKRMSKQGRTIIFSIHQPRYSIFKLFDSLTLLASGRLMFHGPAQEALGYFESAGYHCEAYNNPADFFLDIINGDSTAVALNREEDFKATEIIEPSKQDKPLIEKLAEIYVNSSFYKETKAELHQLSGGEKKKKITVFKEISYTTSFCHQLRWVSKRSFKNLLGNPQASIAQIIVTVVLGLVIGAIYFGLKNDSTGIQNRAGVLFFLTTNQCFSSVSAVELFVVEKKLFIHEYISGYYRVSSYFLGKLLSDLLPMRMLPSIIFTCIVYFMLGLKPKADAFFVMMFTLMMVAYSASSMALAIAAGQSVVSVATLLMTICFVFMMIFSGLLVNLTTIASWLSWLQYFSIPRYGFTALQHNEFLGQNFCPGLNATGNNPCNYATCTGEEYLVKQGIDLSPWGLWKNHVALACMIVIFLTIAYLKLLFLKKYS
Put plainly: TP_TRANSPORTER: inhibition of E1S uptake by 17beta-estradiol 3-sulfate at a concentration of 30uM in membrane vesicle from BCRP-expressing K562 cells. The class given is functional, cell membranes. The arrangement: scale not given: the % may be the effect or the level left. The note with it: membrane vesicles from BCRP-expressing K562 cells, probe E1S, read-out: Activity.

For data set [2], the target named is T2, Broad substrate specificity ATP-binding cassette transporter ABCG2 (Homo sapiens, UniProt Q9UNQ0).
T2 sequence (Q9UNQ0 whole entry): T1 sequence (Q9UNQ0 whole entry)
Put plainly: TP_TRANSPORTER: efflux in BCRP-expressing LLC-PK1 cells. Particulars: pig. It counts as functional, cell-based.

Data set [3] concerns the target T1, BCRP (ABCG2). Put plainly: TP_TRANSPORTER: inhibition of E1S uptake by Taurolithocholate-3-sulfate at a concentration of 30uM in membrane vesicle from BCRP-expressing K562 cells. Particulars: membrane vesicles from BCRP-expressing K562 cells, probe E1S, read-out: Activity. The arrangement: scale not given: the % may be the effect or the level left. The class given is functional, cell membranes.

Data set [4] has as its target T2, Broad substrate specificity ATP-binding cassette transporter ABCG2. The data set is described as follows: TP_TRANSPORTER: drug resistance in BCRP-expressing LLC-PK1 cells. The class given is functional, cell-based. Particulars: pig.
For data set [5] the target is unchanged. Put plainly: TP_TRANSPORTER: inhibition of E1S uptake by 7-ethyl-10-hydroxycamptothecin at a concentration of 20uM in membrane vesicle from BCRP-expressing K562 cells. The arrangement: scale not given: the % may be the effect or the level left. The note with it: k562, 20 µM. It counts as functional, cell membranes.
The target of data set [6] is T1, BCRP (ABCG2). Put plainly: TP_TRANSPORTER: inhibition of E1S uptake by 17beta-estradiol at a concentration of 30uM in membrane vesicle from BCRP-expressing K562 cells. It counts as functional, cell membranes. More on the design: scale not given: the % may be the effect or the level left. The note with it: membrane vesicles from BCRP-expressing K562 cells, probe E1S, read-out: Activity.

Data set [7] has as its target T2, Broad substrate specificity ATP-binding cassette transporter ABCG2. Put plainly: TP_TRANSPORTER: uptake in BCRP-expressing LLC-PK1 cells. It counts as functional, cell-based. Particulars: pig.
For data set [8], the target named is T1, BCRP (ABCG2). The data set is described as follows: TP_TRANSPORTER: inhibition of E1S uptake by Estrone at a concentration of 30uM in membrane vesicle from BCRP-expressing K562 cells. It counts as functional, cell membranes. More on the design: scale not given: the % may be the effect or the level left. Particulars: membrane vesicles from BCRP-expressing K562 cells, probe E1S, read-out: Activity.

Data set [9] has as its target T2, Broad substrate specificity ATP-binding cassette transporter ABCG2. Put plainly: TP_TRANSPORTER: inhibition of E1S uptake by Cortisol at a concentration of 30uM in membrane vesicle from BCRP-expressing K562 cells. The class given is functional, cell membranes. More on the design: scale not given: the % may be the effect or the level left. The note with it: k562, 30 µM.

The target in data set [10] is T1, BCRP (ABCG2). The data set is described as follows: TP_TRANSPORTER: inhibition of E1S uptake by Dehydroepiandrosterone-3-sulfate at a concentration of 30uM in membrane vesicle from BCRP-expressing K562 cells. The class given is functional, cell membranes. More on the design: scale not given: the % may be the effect or the level left. The note with it: membrane vesicles from BCRP-expressing K562 cells, probe E1S, read-out: Activity.

The target of data set [11] is T1, BCRP (ABCG2). Put plainly: TP_TRANSPORTER: inhibition of E1S uptake by Taurolithocholate at a concentration of 30uM in membrane vesicle from BCRP-expressing K562 cells. It counts as functional, cell membranes. More on the design: scale not given: the % may be the effect or the level left. Particulars: membrane vesicles from BCRP-expressing K562 cells, probe E1S, read-out: Activity.

Substrate in data set [12]: C[C@]12CC[C@@H]3c4ccc(OS(=O)(=O)O)cc4CC[C@H]3[C@@H]1CCC2=O
The data set is described as follows: TP_TRANSPORTER: uptake in membrane vesicle from BCRP-expressing K562 cells. It counts as functional, cell membranes.

On to `C[C@]12CC[C@@H]3c4ccc(OS(=O)(=O)O)cc4CC[C@H]3[C@@H]1CC[C@@H]2O`, for which, in [1], the activity at 30 µM amounted to 50%. In addition, the Activity entry in data set [2] was “substrate []”.
Regarding `C[C@H](CCC(=O)NCCS(=O)(=O)O)C1CC[C@H]2[C@@H]3CC[C@@H]4C[C@H](OS(=O)(=O)O)CC[C@]4(C)[C@H]3CC[C@]12C` (some centres undefined), in data set [3], the activity at 30 µM turned out to be 30%.
`CCc1c2c(nc3ccc(O)cc13)-c1cc3c(c(=O)n1C2)COC(=O)[C@]3(O)CC` [7-ETHYL-10-HYDROXYCAMPTOTHECIN]: the Activity entry was “substrate []” in data set [4] and 40% in data set [5].
For the molecule `C[C@]12CC[C@@H]3c4ccc(O)cc4CC[C@H]3[C@@H]1CC[C@@H]2O` [ESTRADIOL], in data set [6], the activity at 30 µM was 50%.
Consider `C[C@]12CC[C@@H]3c4ccc(OS(=O)(=O)O)cc4CC[C@H]3[C@@H]1CCC2=O` [ESTRONE SULFURIC ACID], for which the Activity entry in data set [7] is “substrate []”.
On to `C[C@]12CC[C@@H]3c4ccc(O)cc4CC[C@H]3[C@@H]1CCC2=O` [ESTRONE], for which, in data set [8], the activity at 30 µM was found to be 70%.
As for `COc1ccc2c3c([nH]c2c1)[C@H](C=C(C)C)N1C(=O)[C@@H]2CCCN2C(=O)[C@@H]1C3` [FUMITREMORGIN], the Activity result in data set [4] was “substrate []”.
In data set [9], `C[C@]12CCC(=O)C=C1CC[C@@H]1[C@@H]2[C@@H](O)C[C@@]2(C)[C@H]1CC[C@]2(O)C(=O)CO` [HYDROCORTISONE] displayed an Activity of 70%.
Consider `O=C1c2c(O)ccc(O)c2C(=O)c2c(NCCNCCO)ccc(NCCNCCO)c21` [MITOXANTRONE], for which, in data set [4], the Activity result was “substrate []”.
Regarding `C[C@]12CC[C@H](OS(=O)(=O)O)CC1=CC[C@@H]1[C@@H]2CC[C@]2(C)C(=O)CC[C@@H]12` [PRASTERONE SULFURIC ACID], the activity at 30 µM in data set [10] was 50%.
In the case of `C[C@H](CCC(=O)NCCS(=O)(=O)O)[C@H]1CC[C@H]2[C@@H]3CC[C@@H]4C[C@H](O)CC[C@]4(C)[C@H]3CC[C@]12C` [TAUROLITHOCHOLIC ACID], the activity at 30 µM in data set [11] was 20%.

B1: Broad substrate specificity ATP-binding cassette transporter ABCG2 (Homo sapiens) (protein)
chain: T1 sequence (Q9UNQ0 whole entry)
As for B1, the Km in [12] stood at 6.8 µM.

Values taken from ChEMBL document CHEMBL2074466, “Breast cancer resistance protein exports sulfated estrogens but not free estrogens” (Mol Pharmacol, 2003).
